Measured values: paper PMC7982320 (Pharmacology Research & Perspectives, 2021)
Each block holds one compound with its values, some of them ahead of it.

What was measured:
[1] = cited from earlier work
[2] = healthy male subjects, single oral dose of 60 mg 14C‐DFZ; cited from earlier work
CYP2B6 = assay: in vitro; format: in vitro ADME, human; settings: human, 10 µM
CYP1A2 = assay: in vitro; format: in vitro ADME, human; settings: human
CYP3A4 = assay: in vitro; settings: human
[3] = CYP1A2 enzyme activity fold induction, donor one
[4] = CYP1A2 enzyme activity fold induction, donor three
[5] = CYP1A2 enzyme activity fold induction, donor two
[6] = CYP1A2 mRNA fold induction, donor one
[7] = CYP1A2 mRNA fold induction, donor three
[8] = CYP1A2 mRNA fold induction, donor two

Compound: CC1=N[C@]2(C(=O)CO)[C@@H](C[C@H]3[C@@H]4CCC5=CC(=O)C=C[C@]5(C)[C@H]4[C@@H](O)C[C@@]32C)O1 [21‐desDFZ, 21‐desacetyl deflazacort]
- protein binding in human plasma [1]: about 40%
- share of 0–24 h plasma levels of total radioactivity [2]: 33%

- fold induction at 48 h, 10 µM (CYP2B6; CYP2B6 enzyme activity fold induction, donor one): 0.719
- fold induction at 48 h, 10 µM (CYP2B6; CYP2B6 enzyme activity fold induction, donor three): 0.875
- fold induction at 48 h, 10 µM (CYP2B6; CYP2B6 enzyme activity fold induction, donor two): 1.05
- fold induction at 48 h, 10 µM (CYP2B6; CYP2B6 mRNA fold induction, donor one): 0.965
- fold induction at 48 h, 10 µM (CYP2B6; CYP2B6 mRNA fold induction, donor three): 0.989
- fold induction at 48 h, 10 µM (CYP2B6; CYP2B6 mRNA fold induction, donor two): 0.685
- fold induction at 48 h, 10 µM (CYP1A2; [3]): 0.744
- fold induction at 48 h, 10 µM (CYP1A2; [4]): 0.996
- fold induction at 48 h, 10 µM (CYP1A2; [5]): 0.805
- fold induction at 48 h, 10 µM (CYP1A2; [6]): 0.941
- fold induction at 48 h, 10 µM (CYP1A2; [7]): 0.898
- fold induction at 48 h, 10 µM (CYP1A2; [8]): 1.12
- fold induction at 48 h, 10 µM (CYP3A4; CYP3A4 enzyme activity fold induction, donor one): 0.881
- fold induction at 48 h, 10 µM (CYP3A4; CYP3A4 enzyme activity fold induction, donor three): 1.44
- fold induction at 48 h, 10 µM (CYP3A4; CYP3A4 enzyme activity fold induction, donor two): 0.861
- fold induction at 48 h, 10 µM (CYP3A4; CYP3A4 mRNA fold induction, donor one): 0.612
- fold induction at 48 h, 10 µM (CYP3A4; CYP3A4 mRNA fold induction, donor three): 1.18
- fold induction at 48 h, 10 µM (CYP3A4; CYP3A4 mRNA fold induction, donor two): 0.591
Compound: COc1c(N2CCNC(C)C2)c(F)cc2c(=O)c(C(=O)O)cn(C3CC3)c12 (centres unmarked) [Gatifloxacin, reference compound]

- fold induction at 48 h, 100 µM (CYP1A2; [3]): 3.55
- fold induction at 48 h, 100 µM (CYP1A2; [4]): 8.36
- fold induction at 48 h, 100 µM (CYP1A2; [5]): 5.48
- fold induction at 48 h, 100 µM (CYP1A2; [6]): 39.6
- fold induction at 48 h, 100 µM (CYP1A2; [7]): 40.5
- fold induction at 48 h, 100 µM (CYP1A2; [8]): 34.8
Compound: COc1ccc2[nH]c([S+]([O-])Cc3ncc(C)c(OC)c3C)nc2c1 (centres unmarked) [Omeprazole, reference compound]
